Reference: patent publication US20240239786A1, “COMPOSITIONS AND METHODS FOR THE TREATMENT AND PREVENTION OF CANCER” (Yale University, priority 2021, published 2024)

Tests used:
[1] = system: RNR; experiment: dNTP measurement (HIV-1 RT-based dNTP assay) in PEO4 cells; type: cell-based; conditions: 50 μM DB4 or 1 μM triapine, 24 hr
Method: FIG. 2, comprising FIG. 2A through FIG. 2F, depicts representative results of follow-up assays of in silico hit compounds in PEO1 and PEO4 cells. FIG. 2A depicts representative results of cytotoxicity assays on selected 25 in silico hit compounds in PEO1 and PEO4 cells. Cells were plated for 24 hr and then treated with 50 μM compounds for 72 hr. For a positive control, cells were treated with 1 μM triapine for 72 hr. The percentage of cell survival was determined by the MTS cytotoxicity assay. […] Cells were treated with 50 μM compounds or 1 μM triapine for 24 hr. During the last hour, cells were pulse-labeled with EdU, stained with the Click-iT EdU Alexa Fluor 488 Assay Kit, counterstained with 7-AAD, and subsequently analyzed by flow cytometry. EdU-positive cells were gated to determine the percentage of the S phase cell population. […] During the last hour, cells were pulse-labeled with EdU, stained with the Click-iT EdU Alexa Fluor 488 Assay Kit, counterstained with 7-AAD, and subsequently analyzed by flow cytometry. […] The percentages of DNA synthesis in cells treated with each of 10 compounds and triapine relative to the DMSO-treated control is calculated and shown. […] Cells were extracted with 65% methanol for determination of each of dNTPs expressed as pmole/10^6 cells. […] The percentage of cell survival was determined by the MTS cytotoxicity assay. […]

[2] = system: PEO4ip xenografts; experiment: Survival of mice bearing peritoneal PEO4ip xenografts; type: in vivo, SCID-Beige mice; conditions: for effect on survival time of mice: olaparib 50 mg/kg, DB4 10 mg/kg, i.p. daily for 4 weeks
Method: SCID-Beige mice implanted ip with PEO4ip cells were treated daily (qd) with DB4 (10 mg/kg), olaparib (50 mg/kg), and the DB4-olaparib combination for 4 weeks. Kaplan Meier analysis was performed to determine the survival time of mice following treatments. Statistical significance was determined by the Mantel-Cox test comparing the control with each treatment group (N=4-5). […] DB4 given every two days (q2d) in the DB4-olaparib combination for 4 or 6 weeks (n=4-5). […] NOD CRISPR Prkdc Il2r Gamma (NCG) mice implanted sc with SKOV3 cells were treated as described in FIG. 10C for 4 weeks during which the tumor size was measured. Statistical significance was determined by the Wilcoxon matched-pairs signed test comparing the control with each treatment group and comparing between treatment groups. Data are means±SE (N=4-5). *, p<0.05; **, p<0.01.
First, the efficacy of the combination of DB4 and olaparib to treat PEO4ip tumor xenografts, as determined by the median survival time, was evaluated in a peritoneal mouse model (Lin Z P et al., 2018, PLOS One, 13:e0207399). Mice were implanted intraperitoneally (i.p.) with PEO4ip cells and then treated i.p. with olaparib, DB4, or both drugs in combination daily for 4 weeks. The survival endpoint (a 50% increase in abdominal circumference) for vehicle-treated control mice ranged from 55-65 days (8-9 weeks).
Next, these experiments were repeated with modified treatment schedules of DB4 given every two day (q2d) for 4-week and 6-week treatment periods.
Five to six weeks old female SCID-Beige mice were purchased from Envigo (Indianapolis, IN). PEO4ip cells (Lin Z P et al., 2018, PLOS One, 13:e0207399) suspended in 100 μL serum-free medium were implanted i.p. (1×10^7 cells per mouse). Six to eight weeks old female NCG (NOD-Prkdcem26Cd52Il2rgem26Cd22/NjuCrl) mice were purchased from Charles River (Wilmington, MA). SKOV3 cells suspended in 100 μL serum-free medium were mixed with 50 μL Matrigel (BD Biosciences) and implanted s.c. in the right dorsal medial area (1×10^7 cells per mouse). […] The abdominal circumference of PEO4ip-bearing mice reached a 50% increase about 50-70 days.
Mice were randomly assigned to treatment groups (n=4-5) and drug treatment was initiated 3-7 days after tumor implantation. The control group of mice received i.p. treatment with vehicle (2% DMSO) and treatment groups of mice received i.p. treatment for a period of 4 or 6 weeks as follows: Olaparib (50 mg/kg) once daily for 5 consecutive days per week; DB4 (10 mg/kg) once daily for 5 consecutive days (M, T, W, R, F) per week or once every 2 days (M, W, F) per week; The combined treatment with olaparib and DB4 at the dose and schedule described above.
The progression of PEO4ip tumor xenografts in mice was evaluated by measuring the size of the circumference at the lower one-third of the abdominal area with the mouse head positioned upward. A 50% increase in the abdominal circumference was defined as the endpoint of survival as described previously (Lin Z P et al., 2018, PLOS One, 13:e0207399). […] Kaplan-Meier survival curve, median survival time, and statistical analysis was performed using the Prism software (GraphPad). Comparisons were made by the Mantel-Cox test comparing the control with each treatment group. The growth of SKOV3 tumor xenografts was evaluated by the size of s.c. tumor using a digital caliper. Tumor volumes were calculated using the formula: length×width2/2. Statistical difference in the tumor size was determined by the Wilcoxon matched-pairs signed test comparing the control with each treatment group and comparing between treatment groups. Body weights of mice were measured on every treatment day before administration and on the same schedule as tumor measurements during the treatment period.

[3] = Table 2: olaparib 50 mg/kg qd, DB4 10 mg/kg qd, i.p., treated daily
[4] = Table 3: single agents, olaparib 50 mg/kg qd, DB4 10 mg/kg q2d

Structure (SMILES)	levels of dNTPs [1]	Median Survival Time [2, 3]	Median Survival Time [2, 4]	effect on survival time of mice [2]
NC(=S)NN=Cc1ncccc1N [triapine, 3-aminopyridine-2-carboxaldehyde-thiosemicarbazone, reference compound]	significant and pronounced decreases in the levels of dATP and dGTP while causing a marked increase in dCTP and somewhat elevated dTTP			
O=C(c1cc(Cc2n[nH]c(=O)c3ccccc23)ccc1F)N1CCN(C(=O)C2CC2)CC1 [olaparib, reference compound]		66 days	55 days	no effects on the survival time of mice
C=CCn1c(SCc2cccc(Cl)c2)nnc1C1CCN(Cc2nc3ccccc3s2)CC1 [DB4, 2-[(4-{4-allyl-5-[(3-chlorobenzyl)thio]-4H-1,2,4-triazol-3-yl}-1-piperidinyl)methyl]-1,3-benzothiazole]	significant decreases in the levels of dATP, dGTP, and dTTP	67 days	56 days	no effects on the survival time of mice
